Measured values: patent publication US8445461B2, “Pharmaceutical composition for meniere's disease” (Setsuko Takeda, priority 2007, dated 2013)
“And” between values parts separate entries of the source, which are not always exact repeats. Identical values can stand only once. Like-named read-outs stand apart in the source and are kept apart here.

Experiments:
[1] = system: guinea pigs excreting normal feces; assay: Antidiarrheal effect: observation of feces after oral administration of saccharides or sugar alcohols with or without polysaccharides (Example 1); assay type: in vivo
Method: The criteria for analyzing the conditions of feces (hardness, shape and spaces of feces in the intestine) are as shown in Table 2:
The hardness and microscopic findings of feces from the group administered with distilled water were assessed as “Normal” scoring 3, the feces having normal shape and the shape could rather easily change by pushing with fingers were assessed as “Slightly soft” scoring 2, those of which the shape had already changed or it could quite easily change by pushed with fingers were assessed as “Soft” scoring 1, and those of which the shape is muddy or watery or of no shape were assessed “Muddy” scoring 0. To be precese, there are no watery feces because of the nature of diets and thus the muddy feces correspond to watery and muddy feces in human.
Since the muddy feces comprise large content of water, they induce the high abdominal pressure and the flatulence and distension. […] In the case of gas generation, it appears that noxious symptom such as the flatulence and distension are synergistically deteriorated. Therefore, we assessed not only based on the hardness of feces, but also the size, smoothness of the surface and amount of feces.
In these experiments, I observed is the diarrhea caused by saccharides or sugar alcohols and antidiarrhreal effect of saccharides. Guinea pigs orally received saccharides or sugar alcohols, for example tetrose such as erythritol, pentose such as xylitol or xylose, hexose such as isosorbitol or the like in combination with or without polysaccharides for observation of the feces up to 6 hours after the administration.
Guinea pigs (body weight 280 to 320 g, normal feces) were divided into four groups: for Group 1-a, xylitol alone (Reference Example 1), or xylitol and xanthan gum or pectin; for Group 1-b, xylose alone (Reference Example 2), xylose and xanthan gum or pectin; for Group 1-c, erythritol alone (Reference Example 3), erythritol and pectin, erythritol and xanthan gum, or erythritol, pectin and natural aluminum silicate gel or calcium carbonate; and for Group 1-d, isosorbitol alone (Reference Example 4), or isosorbitol and xanthan gum or pectin were orally administered, respectively. The compounds are dissolved in distilled water and 8 ml/kg of said solution were administered as a single dose.
The feces were observed during 6 hours after the administration. When the animals fell into the most serious condition, the hardness and shape of the feces from said animals were assessed as the effect by saccharides or sugar alcohols in the animals.

[2] = system: experimental endolymphatic hydrops; assay: Endolymphatic hydrops decompression effect: IR-L, IR-S and regression lines in the operated ear; assay type: in vivo, guinea pigs; conditions: active agent 2.8 g/kg oral, alone or with additive; for Regression line IR-S vs IR-L: Y-intercept / Regression line IR-S vs IR-L: slope: operated ears, 3 hours after; for IR-L (%) increase ratio of the length of Reissner's membrane / IR-S (%) increase ratio of the cross-sectional area of the scala media: operated side, perfusion 3 hours after
Method: The endolymphatic hydrops-decompression effect of saccharides or sugar alcohols was evaluated by assaying as below in triplicate. Firstly, guinea pigs received the surgical obliteration of the endolymphatic sac in the left ear to prepare “experimental model animals with endolymphatic hydrops”. The surgical obliteration of the endolymphatic sac was carried out by burning the extraskeletal portion in the endolymphatic sac with a bipolar electrocoagulator. An endolymphatic sac plays an important role in the absorption of endolymphatic fluid. The inhibition of absorption of endolymphatic fluid was caused by burning the endolymphatic sac to prepare an experimental endolymphatic hydrops. Those hydrops are progressively formed. The size of hydrops becomes constant 2 weeks to month after the surgery and maintained for several months. In detail, see Non-patent Reference 8 for the surgery.
After 1 month, they were divided into 3 groups: Group 2-1 (groups 1-6), 60 animals; Group 2-2 (groups 7-10), 40 animals; and Group 2-3 (groups 11-20), […]. The animals in Group 2-1 received saccharides or sugar alcohols alone (Reference Example 5). The animals in Group 2-2 orally received saccharides or sugar alcohols added polysaccharides. The animals in Group 2-3 received other combinations of saccharides or sugar alcohols added polysaccharides. Animals were sacrificed after the oral administration and the observation and the assessment the gastrointestinal condition, and observed the morphological change of the cochlea mainly in the operated side (left side), in particular of the endolymphatic hydrops decompression effect.
I were obtained left sides of the temporal bones immediately following fixation and kept them in 10% formalin solution for 10 days or more. They were decalcified with 5% trichloroacetic acid and dehydrated with alcohol in increasing concentration, then embedded in paraffin and celloidin. The prepared blocks were cut serially in the horizontal plane. The mid-modiolar sections were stained in hematoxylin and eosin and studied under a light microscope. For the quantitative assessment of changes of the endolymphatic space, the change ratios of the length of Reissner's membrane and the cross-sectional area of the scala media in each turn were measured from the mid-modiolar sections of the cochlea.
From these parameters, the increase ratios (%) of the length of Reissner's membrane (IR-L) and the cross-sectional area (%) of the scala media (IR-S) of a total of four turns were calculated according to the equation as described below:
The increase ratio of the length of Reissner's membrane (IR-L)=100×Σ(Lx−L*x)/ΣL*x (x: first, second, third and fourth turns)
The increase ratio of the cross-section area of the scala media (IR-S)=100×Σ(Sx−S*x)/ΣS*x (x: first, second, third and fourth turns)
Since almost no difference is shown in the regression lines of each group, it cannot be understood that there is the decompression effect of erythritol alone. When endolymphatic hydrops is formed, the cross-sectional area of scala media and the length of Reissner's membrane will increase. It can be assumed from FIG. 1 that there is statistically a primary correlation between both of them in the operated side in the control group. The regression lines are; IR-S (distilled water)=4.011+1.212*IR-L (distilled water); R2=0.987, IR-S (1 hour after)=5.409+1.1*IR-L (1 hour after); R2=0.903, IR-S (2 hours after)=1.125+0.992*IR-L (2 hours after); R2=0.98, IR-S (3 hours after)=2.407+1.309*IR-L (3 hours after); R2=0.974, IR-S (6 hours after)=7.36+1.147*IR-L (6 hours after); R2=0.895, IR-S (12 hours after)=8.089+1.152*IR-L (12 hours after); R2=0.918.
The difference of decompression effect on endolymphatic hydrops depending on dose of pectin added and time-course of the decompression effect can hardly determined by comparing and analyzing the average and standard deviation of IR-L and IR-S in the operated side in each groups. […]

endolymphatic space = conditions: cited from earlier work; for Morphological change in the normal ear: glycerol 2.8 g/kg oral
guinea pigs = assay: Reference Example 7: erythritol or isosorbitol added jelly, conditions of feces and gastrointestinal tract; assay type: in vivo
Source text: As described hereinbefore, erythritol or isosorbitol as saccharides or sugar alcohols added jelly as a thickner were orally administered to 10 guinea pigs (280 to 350 g body weight) as shown in Table 41. The conditions of feces were observed.

[3] = system: guinea pigs of normal Prayer's reflex; conditions: cited from earlier work; for Plasma AVP: continuous subcutaneous administration
[4] = active agent 2.8 g/kg oral, alone or with additive of the label
[5] = active agent 2.8 g/kg oral, alone or with additives of the label, most serious condition within 6 hours
[6] = active agent 1.4 g/kg oral, within 6 hours
[7] = active agent 2.1 g/kg oral, within 6 hours
[8] = active agent 3.5 g/kg oral, alone or with additive of the label, within 6 hours
[9] = active agent 5.6 g/kg oral, alone or with additive of the label, within 6 hours
[10] = agent 2.8 g/kg oral + Jelly 0.1 g/kg, 5 animals
[11] = agent 2.8 g/kg oral + Jelly 0.25 g/kg, 5 animals
[12] = agent 2.8 g/kg oral, no additive dosage (agent alone)
[13] = saccharide or sugar alcohol 2.8 g/kg oral, alone or with additive, feces observed for 6 hours

## O=C[C@H](O)[C@@H](O)[C@H](O)CO [Xylose, xylose]
[1]; [4]
  Abdominal distension / gas by inspections and palpations: mild or moderate flatulence and distension
[1]; [5]
  Hardness of feces: Muddy (number of animals): 1
  Hardness of feces: Normal (number of animals): 0
  Hardness of feces: Slightly soft (number of animals): 1
  Hardness of feces: Soft (number of animals): 3
[2]
  Regression line IR-S vs IR-L: Y-intercept: 1.197
  Regression line IR-S vs IR-L: slope: 1.364
  IR-L (%) increase ratio of the length of Reissner's membrane: 29.7 ± 21.3%
  IR-S (%) increase ratio of the cross-sectional area of the scala media: 41.7 ± 30.1%

## O[C@@H]1CO[C@H]2[C@@H]1OC[C@@H]2O [Isosorbitol]
[1]; [6]
  Hardness of feces: Muddy (number of animals): 0
  Hardness of feces: Normal (number of animals): 3
  Hardness of feces: Slightly soft (number of animals): 1
  Hardness of feces: Soft (number of animals): 0
[1]; [7]
  Hardness of feces: Muddy (number of animals): 0
  Hardness of feces: Normal (number of animals): 0
  Hardness of feces: Slightly soft (number of animals): 2
  Hardness of feces: Soft (number of animals): 2
[1]; [4]
  Time after administration of the peak (most serious) diarrhea: Three to four hours after
  Time after administration when diarrhea / softening of feces started: 2 h
  Time after administration when feces recovered to (almost) normal: 6 h
[1]; [5]
  Hardness of feces: Muddy (number of animals): 1
  Hardness of feces: Normal (number of animals): 2
  Hardness of feces: Slightly soft (number of animals): 2
  Hardness of feces: Soft (number of animals): 2
[1]; [8]
  Hardness of feces: Muddy (number of animals): 3
  Hardness of feces: Normal (number of animals): 0
  Hardness of feces: Slightly soft (number of animals): 0
  Hardness of feces: Soft (number of animals): 1
[1]; [9]
  Hardness of feces: Muddy (number of animals): 3
  Hardness of feces: Normal (number of animals): 0
  Hardness of feces: Slightly soft (number of animals): 0
  Hardness of feces: Soft (number of animals): 0
[2]; listed as IB alone
  Regression line IR-S vs IR-L: Y-intercept: 7.143 and 6.542
  Regression line IR-S vs IR-L: slope: 1.003 and 1.011
[2]
  IR-L (%) increase ratio of the length of Reissner's membrane: 31.3 ± 36.5%
  IR-S (%) increase ratio of the cross-sectional area of the scala media: 40.9 ± 38.2%
Endolymphatic space
  Time until exertion of effect after the oral administration: ~6 h
Guinea pigs; [10]
  Hardness of feces: Muddy (number of animals): 1
  Hardness of feces: Normal (number of animals): 2
  Hardness of feces: Slightly soft (number of animals): 0
  Hardness of feces: Soft (number of animals): 2
Guinea pigs; [11]
  Hardness of feces: Muddy (number of animals): 0
  Hardness of feces: Normal (number of animals): 2
  Hardness of feces: Slightly soft (number of animals): 0
  Hardness of feces: Soft (number of animals): 3
Guinea pigs; [12]
  Hardness of feces: Muddy (number of animals): 1
  Hardness of feces: Normal (number of animals): 2
  Hardness of feces: Slightly soft (number of animals): 2
  Hardness of feces: Soft (number of animals): 3

## OC[C@@H](O)[C@@H](O)[C@H](O)[C@@H](O)CO [Sorbitol, sorbitol]
[1]; [13]
  Hardness of feces 0 (Muddy): number of animals: 2 and 3
  Hardness of feces 1 (Soft): number of animals: 2
  Hardness of feces 3 (Normal): number of animals: 0

## NC(=O)CC[C@@H]1NC(=O)[C@H](Cc2ccccc2)NC(=O)[C@H](Cc2ccc(O)cc2)NC(=O)[C@@H](N)CSSC[C@@H](C(=O)N2CCC[C@H]2C(=O)N[C@@H](CCCN=C(N)N)C(=O)NCC(N)=O)NC(=O)[C@H](CC(N)=O)NC1=O [AVP, arginine vasopressin]
[3]; AVP 0.2 mU/kg/min
  Plasma AVP: 2.2 ± 0.4 pg/mL
  Increase ratio (%) of the cross-sectional area of the scala media: 4.4 ± 0.7%
[3]; AVP 0.4 mU/kg/min
  Plasma AVP: 3.5 ± 1.8 pg/mL
  Increase ratio (%) of the cross-sectional area of the scala media: 10.4 ± 1.8%
[3]; AVP 1.0 mU/kg/min
  Plasma AVP: 14.0 ± 3.9 pg/mL
  Increase ratio (%) of the cross-sectional area of the scala media: 17.4 ± 7.9%
[3]; AVP 1 mU/kg/minute, continuous, mini-pump subcutaneously
  Formation of endolymphatic hydrops: apparently produced endolymphatic hydrops

## OCC(O)CO [Gly alone, glycerol]
[2]
  Regression line IR-S vs IR-L: Y-intercept: −2.455
  Regression line IR-S vs IR-L: slope: 0.887
  IR-L (%) increase ratio of the length of Reissner's membrane: 37.4 ± 31.2%
  IR-S (%) increase ratio of the cross-sectional area of the scala media: 31.0 ± 27.5%
Endolymphatic space; 2 hours after
  Morphological change in the normal ear: collapse
Endolymphatic space; 6 hours after
  Morphological change in the normal ear: mild hydrops
Endolymphatic space
  Time until exertion of effect after the oral administration: about 2 hours

## OC[C@@H](O)[C@H](O)[C@@H](O)CO [Xylitol, xylitol]
[1]; [6]
  Hardness of feces: Muddy (number of animals): 0
  Hardness of feces: Normal (number of animals): 5
  Hardness of feces: Slightly soft (number of animals): 0
  Hardness of feces: Soft (number of animals): 0
[1]; [7]
  Hardness of feces: Muddy (number of animals): 0
  Hardness of feces: Normal (number of animals): 4
  Hardness of feces: Slightly soft (number of animals): 1
  Hardness of feces: Soft (number of animals): 0
[1]; [4]
  Time after administration of the peak (most serious) diarrhea: Three to four hours after the administration
  Time after administration when diarrhea / softening of feces started: 2 h
  Time after administration when feces recovered to (almost) normal: 6 h
[1]; [5]
  Hardness of feces: Muddy (number of animals): 3
  Hardness of feces: Normal (number of animals): 0
  Hardness of feces: Slightly soft (number of animals): 1
  Hardness of feces: Soft (number of animals): 1
[2]
  Regression line IR-S vs IR-L: Y-intercept: 2.371
  Regression line IR-S vs IR-L: slope: 1.208
  IR-L (%) increase ratio of the length of Reissner's membrane: 48.6 ± 40.3%
  IR-S (%) increase ratio of the cross-sectional area of the scala media: 60.1 ± 48.9%

## OC[C@@H](O)[C@@H](O)[C@H](O)[C@H](O)CO [mannitol]
[1]; [13]
  Hardness of feces 0 (Muddy): number of animals: 1
  Hardness of feces 1 (Soft): number of animals: 2
  Hardness of feces 2 (Slightly soft): number of animals: 1
  Hardness of feces 3 (Normal): number of animals: 0
